According to ChEMBL document CHEMBL4699523, “Predicting the Human Hepatic Clearance of Acidic and Zwitterionic Drugs” (J Med Chem, 2020):

Key:
in vitro [1] = conditions: dog, MDCK, pH 7.4
Description: Apparent permeability in dog MDCKII-LE cells at pH 7.4

[2] = cynomolgus monkey, in vivo, iv, 1 mg/kg
in vitro [3] = conditions: cynomolgus monkey, plasma
Description: Fraction unbound in cynomolgus monkey plasma

physchem [4] = test: physchem
in vivo [5] = conditions: cynomolgus monkey, blood and plasma, iv
Description: Ratio of drug level in cynomolgus monkey blood to plasma administered through iv dosing by LC-MS/MS analysis

[6] = human, in vivo, iv
Description: Hepatic clearance in human administered through iv dosing

physchem [7] = test: physchem; remark: listed apart in the source
clinical = conditions: human, blood and plasma, iv
Description: Ratio of drug level in human blood to plasma administered through iv dosing by LC-MS/MS analysis

physchem [8] = conditions: buffer, pH 7.4
in vivo [9] = conditions: Wistar Hannover, rat, blood and plasma, iv
Description: Ratio of drug level in Wistar Hannover rat blood to plasma administered through iv dosing by LC-MS/MS analysis

in vitro [10] = conditions: human, cryopreserved hepatocytes
in vitro [11] = conditions: rat, plasma
Description: Fraction unbound in rat plasma

[12] = rat, in vivo, iv, 1 mg/kg
in vitro [13] = conditions: human, plasma
Description: Fraction unbound in human plasma

[14] = Ratio of drug level in human blood to plasma administered through oral dosing by LC-MS/MS analysis; assay type: ADME, cell-free; conditions: blood and plasma
[15] = Hepatic clearance in cynomolgus monkey administered through oral dosing; assay type: ADME, Macaca fascicularis; conditions: in vivo
[16] = Ratio of drug level in cynomolgus monkey blood to plasma administered through oral dosing by LC-MS/MS analysis; assay type: ADME, cell-free, Macaca fascicularis; conditions: blood and plasma
[17] = Hepatic clearance in human administered through oral dosing; assay type: ADME

Papp (in vitro [1]) [×10⁻⁶ cm/s] | CLH [2] [mL/min/kg] | fraction unbound (in vitro [3]) | pKa at 0.3 h (physchem [4]) | blood plasma ratio (in vivo [5]) | CLH [6] [mL/min/kg] | pKa at 0.3 h (physchem [7]) | blood plasma ratio (clinical) | logD (physchem [8]) | blood plasma ratio (in vivo [9]) | CLint scaled at 2 h, 1 µM (in vitro [10]) [mL/min/kg] | fraction unbound (in vitro [11]) | CLH [12] [mL/min/kg] | fraction unbound (in vitro [13]) | blood plasma ratio [14] | CLH [15] [mL/min/kg] | blood plasma ratio [16] | CLH [17] [mL/min/kg] | SMILES
12 | 9.2 | 0.0125 | 3.2 | 0.61 | 10.2 | 4.2 | 0.61 | 2.4 | 0.65 | 39 | 0.006 | 4.3 | 0.006 |  |  |  |  | CCCc1nc2c(C)cc(-c3nc4ccccc4n3C)cc2n1Cc1ccc(-c2ccccc2C(=O)O)cc1
2.3 |  | 0.0014 | 2.4 |  |  | 4.7 |  | > 3.5 |  | 201 |  |  | 0.00086 | 0.653 | 2 | 0.617 | 0.59 | O=C(O)[C@@H]1CCC[C@H]1C(=O)c1ccc(-c2ccc(Nc3nc4ccc(F)cc4s3)c(F)c2)cc1
 |  | 5.6e-05 |  |  |  | 4.4 |  | > 3.5 |  | 1680 |  |  | 3.6e-05 | 0.605 | 0.29 | 0.823 | 0.078 | Cc1cc(O[C@H](CCC(F)(F)F)c2ccc(C(=O)NCCC(=O)O)cc2)cc(C)c1-c1ccc(C(C)(C)C)cc1
7.3 |  | 0.00107 |  |  |  | 3.4 |  | 1.6 |  | 19 |  |  | 0.00229 | 0.55 | 6.1 | 0.562 | 0.72 | Cc1ccc(S(=O)(=O)NCCc2ccc(Oc3ccc(F)c(F)c3)cc2)cc1C(=O)O
5.5 |  | 0.0284 |  |  |  |  |  | 1.1 |  | 23 |  |  | 0.0172 | 0.655 | 11.3 | 0.623 | 10 | COc1ccccc1[C@H](Cn1c(=O)n(C(C)(C)C(=O)O)c(=O)c2c(C)c(-c3ncco3)sc21)OC1CCOCC1 [FIRSOCOSTAT]
25 |  | 0.0045 |  |  |  | 4.2 |  | 2.6 |  | 27 |  |  | 0.0032 | 0.575 | 0.72 | 0.575 | 0.26 | Cc1ccc(NC(=O)C2(c3ccc4c(c3)OC(F)(F)O4)CC2)nc1-c1cccc(C(=O)O)c1 [LUMACAFTOR]
 |  | 0.00023 |  |  |  | 4.1 |  | > 3.5 |  | 571 |  |  | 0.00025 | 0.55 | 9.3 | 0.95 | 4.9 | CCC[C@H](c1ccc(C(=O)NCCC(=O)O)cc1)[C@H](c1ccc(Cl)cc1)c1c[nH]c2c(F)cc(C)cc12 [MK-3577]
8.5 | 17.8 | 0.0263 | 5.1 | 0.65 | 5.6 | 4.7 | 0.65 | 1.2 | 0.65 | 31 | 0.008 | 7.1 | 0.008 |  |  |  |  | O=C(O)C[C@H](O)C[C@H](O)/C=C/c1c(C2CC2)nc2ccccc2c1-c1ccc(F)cc1 [PITAVASTATIN]
17 |  | 0.0049 |  |  |  |  |  | 2.7 |  | 111 |  |  | 0.0122 | 0.612 | 6 | 1.1 | 8.8 | Cn1cc(C(=O)O)c2ccc(N3CCC(OCc4c(-c5c(Cl)cccc5Cl)noc4C4CC4)CC3)cc21 [TERN-101]
